“Also recorded” adds a separate entry of the source.
How the values were obtained:
[1] = tested on: miR-21; test: RT-qPCR of mature miR-21 levels in MDA-MB-231 cells; type: cell-based, human; conditions: for mature miR-21 levels: MDA-MB-231, RT-qPCR; for reduction of mature miR-21 levels: 1 μM
Protocol: Cell Culture. Cells were cultured at 37° C. and 5% CO2. […] For compound treatment, compound stocks either in DMSO or water were diluted in growth medium and added to cells for the indicated time. […] After transfection, the medium was replaced with growth medium containing the compound of interest, prepared as described above. The RNase L-targeting siRNA or a control siRNA was transfected with Lipofectamine RNAiMAX reagent (Invitrogen) per the manufacturer's protocol.
(§1) RNA Isolation and Quantitative Real-Time PCR (RT-qPCR). After treatment, total RNA was extracted and purified by using the Zymo Quick-RNA mini prep kit per the manufacturer's protocol. Reverse Transcription (RT) for mature miRNAs as well as pri- and pre-miR-21 was completed on 200 ng of RNA by using a miScript 11 RT kit (QIAGEN) according to manufacturer's protocol. RT of mRNAs was performed by using QScript kit (Quanta Bio). An Applied Biosystems QS5 384-well PCR system was used to complete qPCR experiments using Power Sybr Green Mater Mix (Life Technologies) as described previously^6.

[2] = tested on: pre-miR-21; test: RT-qPCR of pre-miR-21 levels in MDA-MB-231 cells; type: cell-based, human; conditions: for pre-miR-21 levels: MDA-MB-231, RT-qPCR
Protocol: Cell Culture. Cells were cultured at 37° C. and 5% CO2. MDA-MB-231 cells (HTB-26, ATCC) were cultured in RMPI 1640 medium with L-glutamine & 25 mM HEPES supplemented with 1× Antibiotic/Antimycotic solution (Corning) and 10% FBS. MCF-10A cells (CRL-10317, ATCC) were cultured in 1×DMEM/F12 50/50 with L-glutamine & 15 mM HEPES (Corning) supplemented with 20% FBS, 1× Antibiotic/Antimycotic solution, 20 ng/mL human epidermal growth factor (Pepro Tech, Inc.), 10 μg/mL insulin (Sigma-Aldrich), and […] hydrocortisone (Pfaltz & Bauer). For compound treatment, compound stocks either in DMSO or water were diluted in growth medium and added to cells for the indicated time. Plasmid DNA to overexpress pre-miR-21 in pcDNA 3.1 (Addgene 21114) or a plasmid DNA encoding the pre-miR-21 mutant (custom purchased from GenScript USA, Inc.) was transfected with jetPRIME per the manufacturer's protocol. After transfection, the medium was replaced with growth medium containing the compound of interest, prepared as described above. The RNase L-targeting siRNA or a control siRNA was transfected with Lipofectamine RNAiMAX reagent (Invitrogen) per the manufacturer's protocol.
as §1

[3] = tested on: PTEN; test: PTEN luciferase assay; type: cell-based, human; conditions: MDA-MB-231
Protocol: PTEN Luciferase Assay. To study de-repression of PTEN, a luciferase-based cellular assay was performed as previously described^6. Briefly, MDA-MB-231 cells (~60% confluency) in 48-well plates were co-transfected with plasmids encoding Renilla luciferase (for normalization) and firefly luciferase fused to the 3′ UTR of PTEN by using Lipofectamine 2000 according to the manufacturer's protocol. After 5 h, the cells were treated with the compounds diluted in growth medium. Luciferase assay were then completed as previously described^4, 9.

[4] = tested on: MDA-MB-231-Luc cells; type: in vivo, mouse; conditions: for pre-miR-21 levels in lung tissue: FISH; for pre-miR-21 levels in lung tissue / ERK levels in lung tissue / PDCD4 expression in lung tissue: 1 assessed after 12 days of dosing; for ERK levels in lung tissue / PDCD4 expression in lung tissue: IHC
From the text: In Vivo Studies to Assess Metastasis of Breast Cancer to the Lung. Female NOD/SCID mice (n=10; 5-7 weeks) were used for in vivo breast cancer metastasis studies as previously reported^6. Briefly, mice purchased from Jackson Laboratory were intravenously injected (tail vein) with MDA-MB-231-Luc cells (0.8×10^6 cells/mice). Luciferase activity was monitored every other day to determine when to initiate treatment [averaged luciferase signal from mice is ten times higher than the background as measured by LagoX (Spectral Instruments)]. After 5 days, the mice were split into three groups, with each group having the same luciferase signal. […]. After 30 days, lungs were harvested and immediately fixed in Bouin's solution (Sigma, HT10132-1L) for 24 h to image nodules. After counting the nodules, the fixed lungs were washed in 60 mL of 10% formalin solution four times over 48 h to remove Bouin's solution. Paraffin-embedded sections of the lungs were then generated by the Histology Core at Scripps Research Florida for further staining.
Lung Tissue Histology. All histological analyses were performed as previously reported^6. The slides were stained on a Leica BondMax Immunostaining platform by using a DAB refine kit. H&E staining and PDCD4, pERK and ERK IHC were performed by the Histology Core at Scripps Research Florida. All antibodies were used at a 1:100 dilution: anti-PDCD4 (Abcam, ab51495); anti-pERK (Cell Signaling Technology, 4370S); and ERK (Cell Signaling Technology, 9102S). The primary antibodies were detected using a DAB Substrate Kit (Vector Laboratories, Inc.) per the manufacturer's protocol.
To visualize miR-21 and pre-miR-21 by fluorescence in situ hybridization (FISH), the paraffin-embedded sections were incubated at 56° C. overnight and cleaned with xylene three times, followed by washing with serially diluted concentrations of ethanol (100%, 95%, 90%, and 85%). The slides were then washed with MilliQ water three times and immersed in 0.3% (v/v) H2O2 for 30 min at room temperature. The slides were then washed with MilliQ water three times and digested with proteinase K (QIAGEN) at 37° C. for 15 min. After washing three times with MilliQ water, the slides were dehydrated with 95% ethanol and air-dried completely at room temperature. The slides were then hybridized with FITC-labeled LNA probes^6 complementary to mature ([…]*/36-FAM SEQ ID NO: 16) or pre-miR-21 ([…]/36-FAM SEQ ID NO: 17) at […] overnight. After hybridization, the slides were washed with 2×SSC (saline sodium citrate buffer) three times and then 1×DPBS three times, all at room temperature. The slides were then incubated with an anti-FITC horseradish peroxidase-conjugated antibody (Abcam) for 2 h at room temperature. The slides were washed with 1×TBST three times.
After staining of interest was completed, the slides were dehydrated, cover-slipped with Cytoseal 60, and imaged with a Leica DM13000 B upright fluorescent microscope.

SMILES: C#CCCC1(CCC(=O)NCCN2CCN(c3ccc4[nH]c(-c5c(N)c6c(F)cccc6[nH]c5=O)nc4c3)CC2)N=N1 [Compound 4]
- mature miR-21 levels [1]: decreases
- pre-miR-21 levels [2]: increases

SMILES: CCOC(=O)C1=C(Nc2ccccc2)S/C(=C\c2ccc(OCCOCCOCCOCCNC(=O)NCCN3CCN(c4ccc5[nH]c(-c6c(N)c7c(F)cccc7[nH]c6=O)nc5c4)CC3)c(O)c2)C1=O [Compound 2, Ribotac-Dovitinib]
- reduction of mature miR-21 levels ([1]; MDA-MB-231): ~ 45±9%
- concentration giving a reduction of mature miR-21 similar to 5 μM of 1 ([1]; MDA-MB-231): 200 nM
- fold increase in potency / miR-21 inhibitory activity compared with 1 ([1]; MDA-MB-231): 25 fold
- mature miR-21 levels [1]: reduced
- PTEN expression (luciferase-based assay) [3]: derepressed
- cleavage of pre-miR-21 upon knock down of RNase L with an siRNA ([2]; MDA-MB-231): reduced; also recorded: repressed cleavage
- pre-miR-21 levels [2]: decreased; also recorded: reduced
- weight change of NOD/Scid mice ([4]; 56 mg/kg q.o.d., over 38 days): did not cause significant changes in weight
- pre-miR-21 levels in lung tissue [4]: significantly diminished
- ERK levels in lung tissue [4]: had no effect
- PDCD4 expression in lung tissue [4]: derepressed
- hematoxylin and eosin (HE) staining of lung ([4]; mouse, in vivo): decrease

SMILES: CN1CCN(c2ccc3nc(-c4c(N)c5c(F)cccc5[nH]c4=O)[nH]c3c2)CC1 [Compound 1, Dovitinib, reference compound]
- reduction of mature miR-21 levels ([1]; MDA-MB-231): not reduced
- decrease of mature miR-21 levels ([1]; 5 μM dose, MDA-MB-231): 32±4%
- mature miR-21 levels [1]: significantly reducing mature miR-21 levels; also recorded: reduced
- PTEN expression (luciferase-based assay) [3]: derepressed
- pre-miR-21 levels [2]: increased; also recorded: enhanced
- competition of cleavage of pre-miR-21 by RIBOTAC 2 ([2]; constant concentration of 2 (1 μM), increasing competitor): competed away cleavage
- pre-miR-21 levels in lung tissue [4]: did not affect
- ERK levels in lung tissue [4]: did not affect
- PDCD4 expression in lung tissue [4]: did not affect

— US12702715B2, “Targeted RNA degradation allows precision repurposing of protein-targeted small molecule medicines to RNA” (University of Florida Research Foundation, Incorporated, priority 2020, dated 2026)
